Values of other authors in US20160289773A1 (priority 2013, published 2016).
“And” between values parts separate entries of the source, which are not always exact repeats. Identical values can stand only once.

How the values were obtained:
[1] = test system: Haemonchus contortus; details: in vivo
[2] = test system: Haemonchus contortus; details: Zaire isolate

c1ccc([C@H]2CN3CCSC3=N2)cc1 [Levamisole, levamisole]
Levamisole efficacy [1]: 100% and > 99% | levamisole susceptibility status of isolate [2]: susceptible
